Measured values from PMC6199744, “Development of Chemical Proteomics for the Folateome and Analysis of the Kinetoplastid Folateome” (ACS Infectious Diseases, 2018).
Read-outs that look alike come from different tables or passages of the source.

Experiments:
Assay type in all cases: binding
[1] = target: T1, HeLa cell extract proteins (Homo sapiens, UniProt O75600); conditions: protein GCAT; HeLa
T1 construct: endogenous in cells; host or cells: HeLa cell extract
T1 sequence (O75600 22-419): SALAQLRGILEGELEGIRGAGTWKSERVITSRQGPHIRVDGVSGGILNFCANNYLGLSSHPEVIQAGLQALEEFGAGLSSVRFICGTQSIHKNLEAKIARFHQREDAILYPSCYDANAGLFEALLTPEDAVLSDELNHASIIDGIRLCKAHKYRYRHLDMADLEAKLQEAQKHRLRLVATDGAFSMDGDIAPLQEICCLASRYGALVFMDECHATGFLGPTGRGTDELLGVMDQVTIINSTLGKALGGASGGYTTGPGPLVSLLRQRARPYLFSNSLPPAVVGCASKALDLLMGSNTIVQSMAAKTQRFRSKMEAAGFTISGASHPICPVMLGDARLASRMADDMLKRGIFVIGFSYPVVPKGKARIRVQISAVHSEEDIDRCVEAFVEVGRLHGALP

[2] = target: T2, HeLa cell extract proteins (Homo sapiens, UniProt O60684); conditions: protein KPNA6; HeLa
T2 construct: endogenous in cells; host or cells: HeLa cell extract

[3] = target: T3, HeLa cell extract proteins (Homo sapiens, UniProt Q09666); conditions: HeLa; protein AHNAK
T3 construct: endogenous in cells; host or cells: HeLa cell extract

[4] = target: T4, HeLa cell extract proteins (Homo sapiens, UniProt P36957); conditions: protein DLST; HeLa
T4 construct: endogenous in cells; host or cells: HeLa cell extract
T4 sequence (P36957 68-453): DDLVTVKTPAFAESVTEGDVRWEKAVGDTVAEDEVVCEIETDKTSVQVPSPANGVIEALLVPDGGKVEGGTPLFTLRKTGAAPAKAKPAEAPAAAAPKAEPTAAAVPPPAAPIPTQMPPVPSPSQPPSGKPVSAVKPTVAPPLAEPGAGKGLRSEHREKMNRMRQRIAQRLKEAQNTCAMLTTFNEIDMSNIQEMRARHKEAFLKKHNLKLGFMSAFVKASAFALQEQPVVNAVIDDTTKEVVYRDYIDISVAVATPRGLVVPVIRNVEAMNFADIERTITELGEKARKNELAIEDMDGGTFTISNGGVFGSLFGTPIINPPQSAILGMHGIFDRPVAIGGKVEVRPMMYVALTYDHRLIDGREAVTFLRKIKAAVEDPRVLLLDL

[5] = target: T5, HeLa cell extract proteins (Homo sapiens, UniProt O15160)
T5 construct: endogenous in cells; host or cells: HeLa cell extract

[6] = target: T6, HeLa cell extract proteins (Homo sapiens, UniProt Q9UNM6)
T6 construct: endogenous in cells; host or cells: HeLa cell extract
T6 sequence (Q9UNM6 1-376): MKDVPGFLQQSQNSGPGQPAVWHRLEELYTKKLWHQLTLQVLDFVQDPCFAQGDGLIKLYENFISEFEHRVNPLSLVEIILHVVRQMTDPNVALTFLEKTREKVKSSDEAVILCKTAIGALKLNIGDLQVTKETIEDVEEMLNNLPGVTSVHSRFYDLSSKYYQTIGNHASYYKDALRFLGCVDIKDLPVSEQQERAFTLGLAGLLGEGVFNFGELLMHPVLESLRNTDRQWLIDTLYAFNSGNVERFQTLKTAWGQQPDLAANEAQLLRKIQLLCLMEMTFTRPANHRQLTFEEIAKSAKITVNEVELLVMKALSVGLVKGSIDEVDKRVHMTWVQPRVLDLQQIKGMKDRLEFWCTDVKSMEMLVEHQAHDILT

[7] = target: T7, HeLa cell extract proteins (Homo sapiens, UniProt O95848)
T7 construct: endogenous in cells; host or cells: HeLa cell extract
T7 sequence (O95848 1-222): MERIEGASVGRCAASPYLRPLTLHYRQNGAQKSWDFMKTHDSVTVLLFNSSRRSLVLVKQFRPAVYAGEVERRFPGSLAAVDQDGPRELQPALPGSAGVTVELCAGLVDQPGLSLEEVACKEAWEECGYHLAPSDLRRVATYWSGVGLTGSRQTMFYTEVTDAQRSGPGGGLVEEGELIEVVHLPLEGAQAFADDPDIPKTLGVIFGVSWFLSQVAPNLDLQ

[8] = target: T8, HeLa cell extract proteins (Homo sapiens, UniProt Q6L8Q7)
T8 construct: endogenous in cells; host or cells: HeLa cell extract
T8 sequence (Q6L8Q7 43-609): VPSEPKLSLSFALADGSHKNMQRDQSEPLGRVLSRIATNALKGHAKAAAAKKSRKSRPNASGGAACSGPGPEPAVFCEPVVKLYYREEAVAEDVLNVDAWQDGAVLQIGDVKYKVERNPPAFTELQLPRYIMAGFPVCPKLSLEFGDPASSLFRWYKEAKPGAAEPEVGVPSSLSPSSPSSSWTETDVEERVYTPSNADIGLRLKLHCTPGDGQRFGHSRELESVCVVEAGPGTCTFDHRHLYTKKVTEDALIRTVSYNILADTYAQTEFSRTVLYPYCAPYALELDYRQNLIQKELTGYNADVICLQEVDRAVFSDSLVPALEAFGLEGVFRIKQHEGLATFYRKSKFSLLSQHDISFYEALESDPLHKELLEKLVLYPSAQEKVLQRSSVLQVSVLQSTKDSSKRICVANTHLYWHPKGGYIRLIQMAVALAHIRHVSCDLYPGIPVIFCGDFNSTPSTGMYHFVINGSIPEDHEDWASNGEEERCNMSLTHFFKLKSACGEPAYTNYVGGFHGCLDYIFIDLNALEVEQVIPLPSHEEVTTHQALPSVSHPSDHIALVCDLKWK

[9] = target: T9, HeLa cell extract proteins (Homo sapiens, UniProt P69905)
T9 construct: endogenous in cells; host or cells: HeLa cell extract

[10] = target: T10, HeLa cell extract proteins (Homo sapiens, UniProt P45954)
T10 construct: endogenous in cells; host or cells: HeLa cell extract

[11] = target: T11, HeLa cell extract proteins (Homo sapiens, UniProt P62081)
T11 construct: endogenous in cells; host or cells: HeLa cell extract

[12] = target: T12, HeLa cell extract proteins (Homo sapiens, UniProt P30046)
T12 construct: endogenous in cells; host or cells: HeLa cell extract

[13] = target: T13, HeLa cell extract proteins (Homo sapiens, UniProt P60891)
T13 construct: endogenous in cells; host or cells: HeLa cell extract
T13 sequence (P60891 1-318): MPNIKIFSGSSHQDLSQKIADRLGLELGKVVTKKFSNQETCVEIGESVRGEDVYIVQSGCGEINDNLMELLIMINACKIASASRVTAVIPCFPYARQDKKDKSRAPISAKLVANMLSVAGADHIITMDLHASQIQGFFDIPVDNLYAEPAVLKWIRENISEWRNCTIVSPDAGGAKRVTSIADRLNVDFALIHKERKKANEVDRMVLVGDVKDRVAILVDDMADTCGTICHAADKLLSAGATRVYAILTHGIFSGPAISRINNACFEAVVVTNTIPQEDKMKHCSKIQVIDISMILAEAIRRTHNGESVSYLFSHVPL

[14] = HeLa, protein HBA1 (HEMOGLOBIN SUBUNIT ALPHA)

T9 sequence (P69905 whole entry): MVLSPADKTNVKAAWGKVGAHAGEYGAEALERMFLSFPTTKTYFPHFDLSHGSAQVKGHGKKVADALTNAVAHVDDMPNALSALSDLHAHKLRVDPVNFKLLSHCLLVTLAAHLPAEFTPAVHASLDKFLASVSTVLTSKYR
T12 sequence (P30046 whole entry): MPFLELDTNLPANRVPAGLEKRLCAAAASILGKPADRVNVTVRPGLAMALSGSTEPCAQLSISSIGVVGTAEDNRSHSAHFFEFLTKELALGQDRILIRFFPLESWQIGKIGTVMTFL
T5 sequence (O15160 whole entry): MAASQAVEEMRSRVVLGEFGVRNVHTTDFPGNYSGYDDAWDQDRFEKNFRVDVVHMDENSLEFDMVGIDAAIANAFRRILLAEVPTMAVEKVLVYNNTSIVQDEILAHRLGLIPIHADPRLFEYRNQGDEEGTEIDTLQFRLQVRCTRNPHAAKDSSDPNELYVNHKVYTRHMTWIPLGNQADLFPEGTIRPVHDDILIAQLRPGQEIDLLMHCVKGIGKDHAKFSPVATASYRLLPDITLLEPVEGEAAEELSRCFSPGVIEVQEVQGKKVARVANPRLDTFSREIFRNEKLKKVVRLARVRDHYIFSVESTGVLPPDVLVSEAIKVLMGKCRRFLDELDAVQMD

With `Nc1nc2cccc(-c3ccccc3)c2n1Cc1ccc(Cl)c(Cl)c1` [compound 3] the “fold changes relative to vehicle control” value [1] was 1.03, the “fold changes relative to vehicle control” value [2] was 1.15 and the “fold changes relative to vehicle control” value [3] was 0.86. For the same compound, the “fold changes relative to vehicle control” value [4] was 1.17.

For `Nc1nc2[nH]cc(CCc3ccc(C(=O)N[C@@H](CCC(=O)O)C(=O)O)cc3)c2c(=O)[nH]1` [PTX, pemetrexed], the “fold changes relative to vehicle control” value [5] was 0.9, the “fold changes relative to vehicle control” value [6] was 0.88 and the “fold changes relative to vehicle control” value [7] was 0.49. For the same compound, the “fold changes relative to vehicle control” value [8] was 1.04, the “fold changes relative to vehicle control” value [9] was 0.97 and the “fold changes relative to vehicle control” value [10] was 0.93. For the same compound, the “fold changes relative to vehicle control” value [11] was 0.92, the “fold changes relative to vehicle control” value [12] was 1.49 and the “fold changes relative to vehicle control” value [13] was 1.07.

In the case of `Nc1nc2c(c(=O)[nH]1)N(C=O)C(CNc1ccc(C(=O)N[C@@H](CCC(=O)O)C(=O)O)cc1)CN2` (stereo partly drawn) [LEU, leucovorin], the “fold changes relative to vehicle control” value ([5]; protein POLR1C, HeLa) is reported as 0.87, the “fold changes relative to vehicle control” value ([6]; protein PSMD13, HeLa) is reported as 0.95 and the “fold changes relative to vehicle control” value ([7]; protein NUDT14, HeLa) is reported as 1.01. For the same compound, the “fold changes relative to vehicle control” value ([8]; HeLa, protein PDE12) was 0.93, the “fold changes relative to vehicle control” value [9, 14] was 1.29 and the “fold changes relative to vehicle control” value ([10]; HeLa, protein ACADSB) was 0.9. For the same compound, the “fold changes relative to vehicle control” value ([11]; HeLa, protein RPS7) was 0.94, the “fold changes relative to vehicle control” value ([12]; HeLa, captured protein DDT) was 1.06 and the “fold changes relative to vehicle control” value ([13]; HeLa, protein PRPS1) was 1.12.

For `CCCCCCOc1cccc(Cc2cnc(N)nc2N)c1` [compound 2], the “fold changes relative to vehicle control” value [1] was 1.14, the “fold changes relative to vehicle control” value [2] was 1.34 and the “fold changes relative to vehicle control” value [3] was 1.1. The “fold changes relative to vehicle control” value [4] was 1.34.

For `NCCOCCOCC(=O)Nc1nc2ncc(CNc3ccc(C(=O)NC(CCC(=O)O)C(=O)O)cc3)nc2c(=O)[nH]1` (stereo not drawn) [compound 6], the “fold changes relative to vehicle control” value ([5]; protein POLR1C, HeLa) was 0.97, the “fold changes relative to vehicle control” value ([6]; protein PSMD13, HeLa) was 1.02 and the “fold changes relative to vehicle control” value ([7]; protein NUDT14, HeLa) was 0.8. For the same compound, the “fold changes relative to vehicle control” value ([8]; HeLa, protein PDE12) was 1.1, the “fold changes relative to vehicle control” value [9, 14] was 1.05 and the “fold changes relative to vehicle control” value ([10]; HeLa, protein ACADSB) was 0.96. The “fold changes relative to vehicle control” value ([11]; HeLa, protein RPS7) was 1.06, the “fold changes relative to vehicle control” value ([12]; HeLa, captured protein DDT) was 1.79 and the “fold changes relative to vehicle control” value ([13]; HeLa, protein PRPS1) was 1.08.

For `CCCCCCOc1ccc(Cc2cnc(N)nc2N)cc1` [compound 1], the “fold changes relative to vehicle control” value [1] was 0.95, the “fold changes relative to vehicle control” value [2] was 1.16 and the “fold changes relative to vehicle control” value [3] was 0.88. For the same compound, the “fold changes relative to vehicle control” value [4] was 1.31.

In the case of `NCCCNc1ccc(C(=O)NC(CCC(=O)O)C(=O)O)cc1` (stereo not drawn) [compound 7], the “fold changes relative to vehicle control” value ([5]; protein POLR1C, HeLa) is reported as 0.95, the “fold changes relative to vehicle control” value ([6]; protein PSMD13, HeLa) is reported as 0.86 and the “fold changes relative to vehicle control” value ([7]; protein NUDT14, HeLa) is reported as 0.97. The “fold changes relative to vehicle control” value ([8]; HeLa, protein PDE12) was 1.34, the “fold changes relative to vehicle control” value [9, 14] was 0.76 and the “fold changes relative to vehicle control” value ([10]; HeLa, protein ACADSB) was 1.02. For the same compound, the “fold changes relative to vehicle control” value ([11]; HeLa, protein RPS7) was 0.88, the “fold changes relative to vehicle control” value ([12]; HeLa, captured protein DDT) was 1.25 and the “fold changes relative to vehicle control” value ([13]; HeLa, protein PRPS1) was 0.9.
